Measured values reported in patent publication US8946247B2, “Quinazoline carboxamide azetidines” (Merck Patent GmbH, priority 2010, dated 2015).

Columns and labels:
P70S6K (T412E mutant) = target: T1, P70S6K (T412E mutant) (Homo sapiens, UniProt P23443, T412E); test: p70S6K Enzyme Assay; assay type: biochemical; conditions: 24 μM ATP, 90 min at 25° C., Caliper mobility shift
T1 construct: purchased Millipore
Procedure, shortened: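 Mobile-shift assay: 3 nM P70S6K T412E with 24 μM ATP and 1 μM FITC-labelled S6-derived peptide in Hepes pH 7.5, MgCl2, DTT, Brij; 90 min at 25 °C, stopped with EDTA. Substrate/phosphopeptide ratio separated electrophoretically on Caliper LabChip; IC50 determined.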

pS6 MDA-MB-468 = test: Cellular Activity Assay (phospho-S6 in MDA-MB-468 cells); assay type: cell-based; conditions: Homo sapiens, 2 hr compound incubation, percent pS6-positive cells
Procedure, shortened: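 MDA-MB-468 cells treated with compound for 2 hr, fixed, then immunostained for phospho-S6 with propidium iodide counterstain. Green (pS6) and red (total) cells counted by laser-scanning cytometry; IC50 derived from percent pS6-positive cells versus compound concentration.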

Akt1 = target: T2, Akt1 (Homo sapiens, UniProt P31749); test: AKT/PKB Kinase Assay; assay type: biochemical; conditions: His-AKT (Full Length), 160 uM ATP, 90 min at 25 C
T2 construct: 0.1 ng/ul His-AKT (Full Length), (Invitrogen, Part #P2999, Lot #641228C); His; purchased Invitrogen P2999
Procedure, shortened: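 Full-length His-tagged human AKT1 (0.1 ng/ul) with 1 uM FITC-labelled GRPRTSSFAEG peptide, 160 uM ATP, 1 mM MgCl2, 1 mM DTT in 100 mM HEPES pH 7.5, 90 min at 25 C, EDTA stop. Substrate/product peptides separated by off-chip mobility shift; IC50 fitted from % conversion dose-response.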

Aurora B = target: T3, Aurora B (Homo sapiens, UniProt Q96GD4); test: Aurora B Kinase Assay; assay type: biochemical; conditions: GST-Aurora B (1-344), 10 uM ATP, 90 min at 25 C
T3 construct: GST-Aurora B (1-344 amino acids); GST (N); purchased Carna Biosciences 05-102
Procedure, shortened: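 GST-Aurora B (aa 1-344, with His-INCENP) at 0.1 ng/ul, 10 uM ATP and 1 uM FITC-LRRASLG peptide in HEPES pH 7.5 with MgCl2 and DTT, 90 min at 25 C, stopped with EDTA. Substrate-to-product conversion read by off-chip mobility shift; IC50 from sigmoidal dose-response fit.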

T2 sequence (P31749 whole entry): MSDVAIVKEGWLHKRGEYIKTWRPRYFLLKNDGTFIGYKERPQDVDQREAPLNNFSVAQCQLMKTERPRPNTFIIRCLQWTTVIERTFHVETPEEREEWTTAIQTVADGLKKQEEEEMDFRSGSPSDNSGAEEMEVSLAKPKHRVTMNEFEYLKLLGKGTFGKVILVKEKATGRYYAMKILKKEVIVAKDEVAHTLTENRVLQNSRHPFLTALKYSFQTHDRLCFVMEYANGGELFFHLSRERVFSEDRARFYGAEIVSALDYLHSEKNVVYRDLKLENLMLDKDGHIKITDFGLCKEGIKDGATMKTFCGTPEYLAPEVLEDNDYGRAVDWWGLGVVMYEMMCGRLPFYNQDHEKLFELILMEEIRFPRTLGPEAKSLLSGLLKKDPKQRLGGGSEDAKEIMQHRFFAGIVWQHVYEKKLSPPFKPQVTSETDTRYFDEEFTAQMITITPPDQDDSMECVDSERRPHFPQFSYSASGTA
T1 sequence (P23443 1-421 T412E limits assumed): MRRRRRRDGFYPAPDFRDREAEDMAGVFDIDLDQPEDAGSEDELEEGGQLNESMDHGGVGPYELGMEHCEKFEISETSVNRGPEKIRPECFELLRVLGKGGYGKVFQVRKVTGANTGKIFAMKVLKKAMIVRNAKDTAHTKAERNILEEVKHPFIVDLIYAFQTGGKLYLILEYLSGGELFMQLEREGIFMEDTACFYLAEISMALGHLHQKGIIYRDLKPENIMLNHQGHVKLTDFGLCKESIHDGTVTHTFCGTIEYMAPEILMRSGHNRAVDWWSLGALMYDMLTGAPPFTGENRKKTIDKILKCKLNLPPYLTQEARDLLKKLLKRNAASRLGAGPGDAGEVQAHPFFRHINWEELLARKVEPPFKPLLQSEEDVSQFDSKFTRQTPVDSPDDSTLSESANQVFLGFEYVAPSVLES
T3 sequence (Q96GD4 whole entry, the tested form may be a part): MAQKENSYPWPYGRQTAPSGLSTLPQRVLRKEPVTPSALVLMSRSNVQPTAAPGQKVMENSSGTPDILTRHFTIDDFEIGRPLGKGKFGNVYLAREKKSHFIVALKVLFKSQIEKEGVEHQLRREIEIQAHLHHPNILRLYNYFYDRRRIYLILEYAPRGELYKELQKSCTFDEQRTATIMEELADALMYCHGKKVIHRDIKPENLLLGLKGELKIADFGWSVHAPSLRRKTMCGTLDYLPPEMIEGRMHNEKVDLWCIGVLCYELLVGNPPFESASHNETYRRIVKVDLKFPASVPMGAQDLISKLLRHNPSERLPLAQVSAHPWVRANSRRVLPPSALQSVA
T3 sequence (Q9NQS7 803-918 partner limits assumed): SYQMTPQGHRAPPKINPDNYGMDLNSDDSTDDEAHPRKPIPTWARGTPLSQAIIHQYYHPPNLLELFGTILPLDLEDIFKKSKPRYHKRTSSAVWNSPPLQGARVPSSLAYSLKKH

IC50 (P70S6K (T412E mutant)): 2.1 nM
IC50 (pS6 MDA-MB-468): 62 nM
IC50 (Akt1): 23 nM
IC50 (Aurora B): 360 nM
SMILES: NC(=O)c1cccc2c(N[C@H](CN3CCC3)c3ccc(F)c(F)c3F)ncnc12 [Example 19, 4-[(S)-2-Azetidin-1-yl-1-(2,3,4-trifluorophenyl)-ethylamino]-quinazoline-8-carboxylic acid amide]
